Experiments:
Plasmodium falciparum [1] = experiment: Antimalarial activity against multidrug-resistant Plasmodium falciparum Dd2 measured after 72 hrs by SYBR Green 1 dye based fluorescence assay; assay type: functional, organism-based; details: Dd2, 72 h
[2] = Half life in mouse at 2 mg/kg, iv by LC-MS analysis; assay type: ADME, organism-based; details: in vivo
[3] = Time at which plasma concentration stays above in-vitro antimalarial IC50 for chloroquine-sensitive Plasmodium falciparum 3D7 in NIH mouse infected with chloroquine-resistant Plasmodium chabaudi ASCQ at 30 mg/kg/day, po; assay type: ADME, organism-based; details: in vivo
[4] = Apparent clearance in mouse at 2 mg/kg, iv by LC-MS analysis; assay type: ADME, organism-based; details: in vivo, read-out: CL(app)
Plasmodium chabaudi [5] = experiment: Antimalarial activity against chloroquine-resistant Plasmodium chabaudi ASCQ infected in NIH mouse assessed as inhibition of parasitemia at 10 mg/kg, po administered once daily for 4 days starting from 4 hrs post-infection and measured on day 4 by Peter's 4 day test relative to control; assay type: functional
[6] = Apparent volume of distribution in mouse at 2 mg/kg, iv by LC-MS analysis; assay type: ADME, organism-based; details: in vivo, read-out: Vz
[7] = Half life in mouse liver microsomes at 1 uM measured after 30 mins in presence of NADPH by LC-MS/MS analysis; assay type: ADME, Microsome; details: microsomes, 0.5 h, 1 µM
[8] = molecular target: Voltage-gated inwardly rectifying potassium channel KCNH2 (Homo sapiens, UniProt Q12809)
Voltage-gated inwardly rectifying potassium channel KCNH2, sequence (Q12809 whole entry): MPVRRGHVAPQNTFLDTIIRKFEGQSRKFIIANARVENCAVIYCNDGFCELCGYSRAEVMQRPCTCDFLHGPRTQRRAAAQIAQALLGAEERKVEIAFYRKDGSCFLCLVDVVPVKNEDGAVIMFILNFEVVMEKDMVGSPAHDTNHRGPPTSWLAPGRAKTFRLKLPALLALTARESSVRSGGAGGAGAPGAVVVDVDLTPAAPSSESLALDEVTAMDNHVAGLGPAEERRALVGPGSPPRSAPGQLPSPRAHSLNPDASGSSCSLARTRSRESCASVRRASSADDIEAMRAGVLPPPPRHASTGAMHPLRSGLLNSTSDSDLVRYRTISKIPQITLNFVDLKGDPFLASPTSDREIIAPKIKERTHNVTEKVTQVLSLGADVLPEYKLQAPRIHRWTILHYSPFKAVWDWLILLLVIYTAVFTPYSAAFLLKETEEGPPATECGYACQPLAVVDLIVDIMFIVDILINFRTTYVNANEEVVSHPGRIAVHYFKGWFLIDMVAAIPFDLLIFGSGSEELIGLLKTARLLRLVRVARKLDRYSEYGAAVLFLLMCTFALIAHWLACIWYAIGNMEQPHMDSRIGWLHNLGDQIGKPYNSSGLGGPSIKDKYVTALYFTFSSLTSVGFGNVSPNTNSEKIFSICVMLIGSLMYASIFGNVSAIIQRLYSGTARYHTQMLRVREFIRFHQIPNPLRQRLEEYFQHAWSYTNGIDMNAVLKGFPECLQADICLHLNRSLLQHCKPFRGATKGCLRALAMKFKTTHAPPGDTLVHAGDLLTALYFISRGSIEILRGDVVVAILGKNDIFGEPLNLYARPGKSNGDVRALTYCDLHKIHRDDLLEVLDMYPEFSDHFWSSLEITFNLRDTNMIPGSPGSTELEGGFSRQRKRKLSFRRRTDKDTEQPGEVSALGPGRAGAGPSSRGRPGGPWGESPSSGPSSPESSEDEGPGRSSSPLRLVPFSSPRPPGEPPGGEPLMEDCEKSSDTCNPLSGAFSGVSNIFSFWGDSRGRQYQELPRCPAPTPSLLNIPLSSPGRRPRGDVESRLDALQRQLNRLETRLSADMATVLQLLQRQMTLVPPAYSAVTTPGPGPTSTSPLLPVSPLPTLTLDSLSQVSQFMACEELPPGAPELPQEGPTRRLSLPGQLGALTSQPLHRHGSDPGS
Description: Inhibition of Tracer Red binding to human ERG expressed in membranes by fluorescence polarization assay

Plasmodium chabaudi [9] = experiment: Antimalarial activity against chloroquine-resistant Plasmodium chabaudi ASCQ infected in NIH mouse assessed as inhibition of parasitemia at 3 mg/kg, po administered once daily for 4 days starting from 4 hrs post-infection and measured on day 4 by Peter's 4 day test relative to control; assay type: functional
Plasmodium falciparum [10] = experiment: microbe, parasite or virus in culture; details: 3D7, 72 h
Description: Antimalarial activity against chloroquine-sensitive Plasmodium falciparum 3D7 measured after 72 hrs by SYBR Green 1 dye based fluorescence assay

Plasmodium chabaudi [11] = experiment: Antimalarial activity against chloroquine-resistant Plasmodium chabaudi ASCQ infected in po dosed NIH mouse assessed as inhibition of parasitemia administered starting from 4 hrs post-infection by Peter's 4 day test; assay type: functional
Plasmodium chabaudi [12] = experiment: Antimalarial activity against chloroquine-resistant Plasmodium chabaudi ASCQ infected in NIH mouse assessed as inhibition of parasitemia at 30 mg/kg, po administered once daily for 4 days starting from 4 hrs post-infection and measured on day 4 by Peter's 4 day test relative to control; assay type: functional
[13] = Oral bioavailability in mouse at 5 mg/kg by LC-MS analysis; details: in vivo
Plasmepsin 4 = Plasmepsin 4 (Plasmodium falciparum, UniProt Q17SB2); experiment: Inhibition of Plasmodium falciparum plasmepsin 4 using EDANS-CO-CH2-CH2-CO-ALERMFLSFP-Dap(DABCYL)OH as substrate measured after 60 mins by fluorescence assay
Plasmepsin 4, sequence (Q17SB2 whole entry): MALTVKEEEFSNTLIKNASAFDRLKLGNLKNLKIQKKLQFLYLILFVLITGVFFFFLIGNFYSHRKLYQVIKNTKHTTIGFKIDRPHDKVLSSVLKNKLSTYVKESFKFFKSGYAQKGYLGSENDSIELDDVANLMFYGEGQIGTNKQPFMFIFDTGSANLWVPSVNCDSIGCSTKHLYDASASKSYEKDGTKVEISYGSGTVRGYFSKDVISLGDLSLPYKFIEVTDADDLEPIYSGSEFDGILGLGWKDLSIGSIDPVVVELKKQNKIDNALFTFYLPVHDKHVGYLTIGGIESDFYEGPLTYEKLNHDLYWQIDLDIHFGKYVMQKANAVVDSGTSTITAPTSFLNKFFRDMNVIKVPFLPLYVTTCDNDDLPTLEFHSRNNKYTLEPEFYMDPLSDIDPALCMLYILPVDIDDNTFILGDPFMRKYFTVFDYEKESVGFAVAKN

[14] = Oral bioavailability in mouse at 5 mg/kg by LC-MS analysis; details: in vivo; remark: listed apart in the source
[15] = Intrinsic clearance in mouse liver microsomes at 1 uM measured after 30 mins in presence of NADPH by LC-MS/MS analysis; assay type: ADME, Microsome; details: 0.5 h
Plasmepsin II = Plasmepsin II (Plasmodium falciparum, UniProt P46925); experiment: Inhibition of Plasmodium falciparum plasmepsin 2 using EDANS-CO-CH2-CH2-CO-ALERMFLSFP-Dap(DABCYL)OH as substrate measured after 60 mins by fluorescence assay
Plasmepsin II, sequence (P46925 whole entry): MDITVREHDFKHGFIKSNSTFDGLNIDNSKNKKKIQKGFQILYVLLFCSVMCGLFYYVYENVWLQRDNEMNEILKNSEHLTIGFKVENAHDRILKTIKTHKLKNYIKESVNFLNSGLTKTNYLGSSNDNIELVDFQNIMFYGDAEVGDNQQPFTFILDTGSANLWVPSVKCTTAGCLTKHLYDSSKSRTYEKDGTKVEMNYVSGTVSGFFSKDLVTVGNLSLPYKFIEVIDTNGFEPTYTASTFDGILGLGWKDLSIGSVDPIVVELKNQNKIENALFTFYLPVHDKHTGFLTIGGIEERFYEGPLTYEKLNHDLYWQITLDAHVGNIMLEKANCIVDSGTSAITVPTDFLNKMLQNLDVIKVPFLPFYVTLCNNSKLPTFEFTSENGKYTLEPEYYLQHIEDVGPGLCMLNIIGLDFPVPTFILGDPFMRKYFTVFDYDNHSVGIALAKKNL

Beta-secretase 1 = Beta-secretase 1 (Homo sapiens, UniProt P56817); experiment: Inhibition of recombinant human C-terminal His10-tagged BACE1 using Mca-SEVNLDAEFRK(Dpn)RR-NH2 as substrate measured after 60 mins by TR-FRET assay
Beta-secretase 1, sequence (P56817 whole entry): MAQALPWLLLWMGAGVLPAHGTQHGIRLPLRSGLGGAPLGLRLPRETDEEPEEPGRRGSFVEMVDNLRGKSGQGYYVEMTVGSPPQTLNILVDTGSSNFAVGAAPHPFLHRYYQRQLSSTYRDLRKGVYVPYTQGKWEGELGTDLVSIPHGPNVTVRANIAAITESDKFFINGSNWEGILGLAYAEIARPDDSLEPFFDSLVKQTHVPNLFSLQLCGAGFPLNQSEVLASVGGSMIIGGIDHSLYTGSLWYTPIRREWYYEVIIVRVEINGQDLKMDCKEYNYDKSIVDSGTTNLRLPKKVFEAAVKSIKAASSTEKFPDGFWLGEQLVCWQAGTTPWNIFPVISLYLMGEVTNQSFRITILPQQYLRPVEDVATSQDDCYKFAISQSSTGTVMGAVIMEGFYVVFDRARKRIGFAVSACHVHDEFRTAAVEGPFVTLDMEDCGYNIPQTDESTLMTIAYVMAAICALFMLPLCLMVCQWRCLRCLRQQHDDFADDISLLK

Row | Compound | IC50 (Plasmodium falciparum [1]) | half-life [2] | Time [3] | clearance [4] | inhibition in vivo at 10 mg/kg (Plasmodium chabaudi [5]) | Vd [6] | t1/2 [7] | IC50 [8] | inhibition in vivo at 3 mg/kg (Plasmodium chabaudi [9]) | IC50 (Plasmodium falciparum [10]) | ED90 (Plasmodium chabaudi [11]) | ED99 (Plasmodium chabaudi [11]) | inhibition in vivo at 30 mg/kg (Plasmodium chabaudi [12]) | bioavailability [13] | IC50 (Plasmepsin 4) | bioavailability [14] | Intrinsic clearance (CLint) [15] | IC50 (Plasmepsin II) | IC50 (Beta-secretase 1)
1 | C[C@H](NC(=O)[C@H]1CNC[C@@H]1c1ccc(C(F)(F)F)cc1)c1ccc(N(C)C)cc1 | 0.021 µM | 4.4 h | 24 h | 3.3 mL/min/kg | 75.2% | 1.3 L/kg | 0.633 h | 32 µM | 22.4% | 0.046 to 0.051 µM | 20 mg/kg/day | 30 mg/kg/day | 98.7% | 32% | – | – | – | – | –
2 | CN(C)c1ccc(CNC(=O)[C@H]2CNC[C@@H]2c2ccc(C(F)(F)F)nc2)cc1 (racemic) | – | 6.6 h | – | 5.9 mL/min/kg | – | 3.2 L/kg | 1.17 h | 21.7 µM | – | 0.23 to 0.25 µM | – | – | – | – | > 10 µM | 13% | 3.1 µL/min/mg | > 10 µM | > 10 µM

Reference: ChEMBL document CHEMBL4390670, “4-Aryl Pyrrolidines as a Novel Class of Orally Efficacious Antimalarial Agents. Part 1: Evaluation of 4-Aryl- N-benzylpyrrolidine-3-carboxamides” (J Med Chem, 2019)
